# Results reported in patent US20260207483A1, “PHARMACEUTICAL CO[…] FOR THE TREATMENT OF OPHTHALMIC CONDITIONS” (Adtech Pharma, Inc., priority 2022, published 2026).
# Assays:
# [1] = Solubility of nabilone in water and common solvents (USP classification); assay type: physicochemical
# Source text: Nabilone is difficult to solubilize in most solvents such that preparing a liquid composition comprising nabilone is very challenging. […] These solvents are not suitable for use in human pharmaceutical formulations.
# [2] = Solubility of nabilone in sesame oil; assay type: physicochemical; conditions: 5% w/w of nabilone in sesame oil; for Nabilone recovered from oil phase (w/w in mg/mL): 250 mg/g added
# Source text: It is also challenging to solubilize nabilone in pharmaceutically acceptable oils, even at elevated temperatures.
smiles,measurement,setting,value
CCCCCCC(C)(C)c1cc(O)c2c(c1)OC(C)(C)C1CCC(=O)CC21 (centres unmarked) [Nabilone],USP Classification of solubility,"[1]; 1,4-Dioxane",Freely Soluble
same,USP Classification of solubility,[1]; 2-Methyltetrahydrofuran,Freely Soluble
same,USP Classification of solubility,[1]; Acetone,Freely Soluble
same,USP Classification of solubility,[1]; Dichloromethane,Freely Soluble
same,USP Classification of solubility,[1]; Dimethoxyethane,Freely Soluble
same,USP Classification of solubility,[1]; Dimethyl sulfoxide,Freely Soluble
same,USP Classification of solubility,[1]; Dimethylformamide,Freely Soluble
same,USP Classification of solubility,[1]; Methyl ethyl ketone,Freely Soluble
same,USP Classification of solubility,[1]; Tetrahydrofuran,Freely Soluble
same,USP Classification of solubility,[1]; p-Xylene,Freely Soluble
same,Solubility in water (USP classification),[1]; water at any pH,insoluble
same,"Observation After Centrifuge (14000 rpm, 10 minutes)",[2]; not heated,Clear solution
same,Observation Before Centrifuge,[2]; not heated,Turbid
same,Nabilone recovered from oil phase (w/w in mg/mL),[2]; not heated,3.9 mg/mL
same,"Observation After Centrifuge (14000 rpm, 10 minutes)",[2]; heated to 90° C. for 3 hours,Clear solution
same,Observation Before Centrifuge,[2]; heated to 90° C. for 3 hours,Turbid
same,Nabilone recovered from oil phase (w/w in mg/mL),[2]; heated to 90° C. for 3 hours,6.3 mg/mL
